“Also recorded” adds a separate entry of the source. Counter-ions that a name gives are not always drawn.
Each compound was assayed on TNF-stimulated IL8 production by human neutrophils (assay: TNF-stimulated IL-8 production from human neutrophils). Details: Neutrophil, TNF 100 ng/ml, about 20 hrs, bounds reflect the top concentration screened, for 202(c) and 120 a range over multiple runs with ends given as 'greater than'.
Type: cell-based
Method: TNF-Stimulated IL-8 Production from Human Neutrophils
The effect of test compounds on TNF-stimulated IL8 production by human neutrophils is measured as follows. Neutrophils are prepared from blood obtained from consenting donors, using standard methods. Blood is collected in heparinized syringes and layered over histopaque (30 ml/20 ml). Following centrifugation, the red cell pellet is resuspended in PBS and purified over a dextran gradient. […] Cells are added (0.5-1 ml) to 48 well plates already containing compound at 1000× final concentration in neat DMSO or 10% DMSO in RPMI1640 with 10% FBS. TNF (final concentration 100 ng/ml) is used as the stimulus. Cells incubated for approximately 20 hrs at 37° C., 5% CO2. Levels of IL-8 in the cell free supernatant are determined by sandwich ELISA, and inhibition relative to a control with DMPO but no compound is calculated.
`Cc1ccc(C(=O)NCc2ccccc2)cc1-c1nc([S+](C)[O-])nc2c1ccc(=O)n2-c1c(F)cccc1F` (stereo not shown) [116(b), 3-[8-(2,6-difluorophenyl)-2-(methylsulfinyl)-7-oxo-7,8-dihydropyrido[2,3-d]pyrimidin-4-yl]-4-methyl-N-(phenylmethyl)benzamide] gave an IC50 of over 100 nM. `CCN(CC)CCCNc1nc(-c2ccc(C(=O)NC3CC3)cc2)c2ccc(=O)n(-c3c(F)cccc3F)c2n1` [Example 190, N-cyclopropyl-4-[2-{[3-(diethylamino)propyl]amino}-8-(2,6-difluorophenyl)-7-oxo-7,8-dihydropyrido[2,3-d]pyrimidin-4-yl]benzamide] was tested, and the IC50 was over 30 nM. In the case of `CCN(CC)CCCNc1nc(-c2ccc(C(=O)Nc3ccc(F)cc3)cc2)c2ccc(=O)n(-c3c(F)cccc3F)c2n1` [Example 191, 4-[2-{[3-(diethylamino)propyl]amino}-8-(2,6-difluorophenyl)-7-oxo-7,8-dihydropyrido[2,3-d]pyrimidin-4-yl]-N-(4-fluorophenyl)benzamide], the IC50 is reported as over 100 nM. In the case of `CCN(CC)CCCNc1nc(-c2ccc(C(=O)Nc3nccs3)cc2)c2ccc(=O)n(-c3c(F)cccc3F)c2n1` [Example 192, 4-[2-{[3-(diethylamino)propyl]amino}-8-(2,6-difluorophenyl)-7-oxo-7,8-dihydropyrido[2,3-d]pyrimidin-4-yl]-N-1,3-thiazol-2-ylbenzamide], the IC50 is reported as over 100 nM. Work on `Cc1ccc(NC(=O)CCNC(=O)CCC(=O)O)cc1-c1nc(NC(CO)CO)nc2c1ccc(=O)n2-c1c(F)cccc1F` [Example 52, 4-[(3-{[3-(8-(2,6-difluorophenyl)-2-{[2-hydroxy-1-(hydroxymethyl)ethyl]amino}-7-oxo-7,8-dihydropyrido[2,3-d]pyrimidin-4-yl)-4-methylphenyl]amino}-3-oxopropyl)amino]-4-oxobutanoic acid trifluoroacetate] yielded an IC50 of over 100 nM. `CCN(CC)CCCNc1nc(-c2cc(C(=O)N[C@@H](C)C(C)C)ccc2C)c2ccc(=O)n(-c3c(F)cccc3F)c2n1` [Example 131, 3-[2-{[3-(diethylamino)propyl]amino}-8-(2,6-difluorophenyl)-7-oxo-7,8-dihydropyrido[2,3-d]pyrimidin-4-yl]-N-[(1S)-1,2-dimethylpropyl]-4-methylbenzamide] showed an IC50 of over 10 nM. `Cc1ccc(NC(=O)c2cccs2)cc1-c1nc(NC2CCNCC2)nc2c1ccc(=O)n2-c1c(F)cccc1F` [7(d), N-{3-[8-(2,6-difluorophenyl)-7-oxo-2-(4-piperidinylamino)-7,8-dihydropyrido[2,3-d]pyrimidin-4-yl]-4-methylphenyl}-2-thiophenecarboxamide] showed an IC50 of over 100 nM. Compound `Cc1ccc(NC(=O)c2cccs2)cc1-c1nc(S(C)(=O)=O)nc2c1ccc(=O)n2-c1c(F)cccc1F` [7(c), N-{3-[8-(2,6-difluorophenyl)-2-(methylsulfonyl)-7-oxo-7,8-dihydropyrido[2,3-d]pyrimidin-4-yl]-4-methylphenyl}-2-thiophenecarboxamide] has an IC50 of over 100 nM. `Cc1ccc(C(=O)O)cc1-c1nc(NC(CO)CO)nc2c1ccc(=O)n2-c1c(F)cccc1F` [80(a), 3-(8-(2,6-difluorophenyl)-2-{[2-hydroxy-1-(hydroxymethyl)-ethyl]amino}-7-oxo-7,8-dihydropyrido[2,3-d]pyrimidin-4-yl)-4-methylbenzoic acid] showed an IC50 of over 100 nM. Compound `Cc1ccc(NC(=O)c2ccc(Cl)nc2)cc1-c1nc(NCc2ncc[nH]2)nc2c1ccc(=O)n2-c1c(F)cccc1F` [Example 17, 6-chloro-N-(3-{8-(2,6-difluorophenyl)-2-[(1H-imidazol-2-ylmethyl)amino]-7-oxo-7,8-dihydropyrido[2,3-d]pyrimidin-4-yl}-4-methylphenyl)-3-pyridinecarboxamide] has an IC50 of over 100 nM. For `Cc1ccc(C(=O)NCCc2ccccc2)cc1-c1nc(NCCN(C)C(=O)OC(C)(C)C)nc2c1ccc(=O)n2-c1c(F)cccc1F` [202(c), 1,1-dimethylethyl(2-{[8-(2,6-difluorophenyl)-4-(2-methyl-5-{[(2-phenylethyl)amino]carbonyl}phenyl)-7-oxo-7,8-dihydropyrido[2,3-d]pyrimidin-2-yl]amino}ethyl)methylcarbamate], the IC50 was 10 to 100 nM. `Cc1ccc(N)cc1-c1nc(NC2CCNCC2)nc2c1ccc(=O)n2-c1c(F)cccc1F` [Example 111, 4-(5-amino-methylphenyl)-8-(2,6-difluorophenyl)-2-(4-piperidinylamino)-pyrido[2,3-d]pyrimidin-7(8H)-one] was tested, and the IC50 was over 100 nM. Compound `Cc1cc(C(=O)Nc2ccc(C)c(-c3nc(NC4CCNCC4)nc4c3ccc(=O)n4-c3c(F)cccc3F)c2)ccc1F` [12(c), N-{3-[8-(2,6-difluorophenyl)-7-oxo-2-(4-piperidinylamino)-7,8-dihydropyrido[2,3-d]pyrimidin-4-yl]-4-methylphenyl}-4-fluoro-3-methylbenzamide] has an IC50 of over 100 nM.

What follows are compounds tested on influx of neutrophils to the lung in LPS-challenged rats (assay: Rat LPS neutrophilia model). Details: LPS aerosol, intratracheal dosing, in at least one of the range of conditions tested, significance p<0.05.
Type: in vivo
Procedure, shortened: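 Compound given intratracheally (200 ul suspension or dry powder via microsprayer) to isoflurane-anesthetized rats 15 min–24 h before 15 min LPS aerosol (100 ug/ml). Lavage 4 h post-challenge; neutrophils from differential counts. % inhibition versus no-compound controls at a given concentration and pretreat time.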
In the case of `Cc1ccc(C(=O)Nc2ccc(F)cc2)cc1-c1nc(N2CCC(N)CC2)nc2c1ccc(=O)n2-c1c(F)cccc1F` [Example 72, 3-[2-(4-amino-1-piperidinyl)-8-(2,6-difluorophenyl)-7-oxo-7,8-dihydropyrido[2,3-d]pyrimidin-4-yl]-N-(4-fluorophenyl)-4-methylbenzamide], the inhibition of neutrophilia is reported as “statistically significant inhibition”. `Cc1ccc(C(=O)Nc2ccc(F)cc2)cc1-c1nc(N(C)CCN(C)C)nc2c1ccc(=O)n2-c1c(F)cccc1F` [Example 99, 3-{8-(2,6-difluorophenyl)-2-[[2-(dimethylamino)ethyl](methyl)amino]-7-oxo-7,8-dihydropyrido[2,3-d]pyrimidin-4-yl}-N-(4-fluorophenyl)-4-methylbenzamide] was tested, and the inhibition of neutrophilia was “statistically nonsignificant inhibition”. `CCN(CC)CCCNc1nc(-c2cc(C(=O)Nc3ccc(F)cc3)ccc2C)c2ccc(=O)n(-c3c(F)cccc3F)c2n1` [Example 160, 3-[2-{[3-(diethylamino)propyl]amino}-8-(2,6-difluorophenyl)-7-oxo-7,8-dihydropyrido[2,3-d]pyrimidin-4-yl]-N-(4-fluorophenyl)-4-methylbenzamide] was tested, and the inhibition of neutrophilia was “statistically significant inhibition”. `Cc1ccc(C(=O)NC2CC2)cc1-c1nc(N2CCC(N3CCC(C)CC3)CC2)nc2c1ccc(=O)n2-c1c(F)cccc1F` [Example 178, N-cyclopropyl-3-[8-(2,6-difluorophenyl)-2-(4-methyl-1,4′-bipiperidin-1′-yl)-7-oxo-7,8-dihydropyrido[2,3-d]pyrimidin-4-yl]-4-methylbenzamide] was tested, and the inhibition of neutrophilia was “statistically nonsignificant inhibition”. For `Cc1ccc(C(=O)Nc2ccc(F)cc2)cc1-c1nc(NCCN(C)C)nc2c1ccc(=O)n2-c1c(F)cccc1F` [Example 112, 3-(8-(2,6-difluorophenyl)-2-{[2-(dimethylamino)ethyl]amino}-7-oxo-7,8-dihydropyrido[2,3-d]pyrimidin-4-yl)-N-(4-fluorophenyl)-4-methylbenzamide], the inhibition of neutrophilia was “statistically nonsignificant inhibition”. With `Cc1ccc(C(=O)Nc2nccs2)cc1-c1nc(NCCCNC(C)(C)C)nc2c1ccc(=O)n2-c1c(F)cccc1F` [Example 102, 3-[8-(2,6-difluorophenyl)-2-({3-[(1,1-dimethylethyl)amino]propyl}amino)-7-oxo-7,8-dihydropyrido[2,3-d]pyrimidin-4-yl]-4-methyl-N-1,3-thiazol-2-ylbenzamide] the inhibition of neutrophilia was “statistically nonsignificant inhibition”. `Cc1ccc(C(=O)Nc2ccc(F)cc2)cc1-c1nc(NCc2ncc[nH]2)nc2c1ccc(=O)n2-c1c(F)cccc1F` [Example 78, 3-{8-(2,6-difluorophenyl)-2-[(1H-imidazol-2-ylmethyl)amino]-7-oxo-7,8-dihydropyrido[2,3-d]pyrimidin-4-yl}-N-(4-fluorophenyl)-4-methylbenzamide] was tested, and the inhibition of neutrophilia was “statistically significant inhibition”. For `CCN(CC)CCCNc1nc(-c2cc(C(=O)NC)ccc2C)c2ccc(=O)n(-c3c(F)cccc3F)c2n1` [Example 119, 3-[2-{[3-(diethylamino)propyl]amino}-8-(2,6-difluorophenyl)-7-oxo-7,8-dihydropyrido[2,3-d]pyrimidin-4-yl]-N,4-dimethylbenzamide], the inhibition of neutrophilia was “statistically significant inhibition”. For `Cc1ccc(NC(=O)c2cccc3cc[nH]c23)cc1-c1nc(NC(CO)CO)nc2c1ccc(=O)n2-c1c(F)cccc1F` [Example 44, N-[3-(8-(2,6-difluorophenyl)-2-{[2-hydroxy-1-(hydroxymethyl)ethyl]amino}-7-oxo-7,8-dihydropyrido[2,3-d]pyrimidin-4-yl)-4-methylphenyl]-1H-indole-7-carboxamide trifluoroacetate], the inhibition of neutrophilia was “statistically significant inhibition”. In the case of `CCN(CC)CCCNc1nc(-c2cc(C(=O)N(C)C)ccc2C)c2ccc(=O)n(-c3c(F)cccc3F)c2n1` [Example 120, 3-[2-{[3-(diethylamino)propyl]amino}-8-(2,6-difluorophenyl)-7-oxo-7,8-dihydropyrido[2,3-d]pyrimidin-4-yl]-N,N,4-trimethylbenzamide], the inhibition of neutrophilia is reported as “statistically nonsignificant inhibition; also recorded: inactive”. With `CNCCNc1nc(-c2cc(C(=O)NCc3ccccc3)ccc2C)c2ccc(=O)n(-c3c(F)cccc3F)c2n1` [Example 59, 3-(8-(2,6-difluorophenyl)-2-{[2-(methylamino)ethyl]amino}-7-oxo-7,8-dihydropyrido[2,3-d]pyrimidin-4-yl)-4-methyl-N-(phenylmethyl)benzamide] the inhibition of neutrophilia was “statistically significant inhibition”. With `Cc1ccc(C(=O)Nc2ccc(F)cc2)cc1-c1nc(N2CCC(N3CCC(C)CC3)CC2)nc2c1ccc(=O)n2-c1c(F)cccc1F` [Example 174, 3-[8-(2,6-difluorophenyl)-2-(4-methyl-1,4′-bipiperidin-1′-yl)-7-oxo-7,8-dihydropyrido[2,3-d]pyrimidin-4-yl]-N-(4-fluorophenyl)-4-methylbenzamide] the inhibition of neutrophilia was “inactive”.
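Wherever IC50 is given: IL-8 in cell-free supernatant quantified by sandwich ELISA, inhibition calculated against a compound-free control.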
